Measurements reported in patent publication US6211244A, “Calcium receptor-active compounds” (priority 1995, dated 2001).

Target: T1, human calcium receptor (Homo sapiens, UniProt P41180, R990G)
T1 construct: expressed in transfected cells; host or cells: HEK 293
T1 sequence (P41180 20-1078 R990G): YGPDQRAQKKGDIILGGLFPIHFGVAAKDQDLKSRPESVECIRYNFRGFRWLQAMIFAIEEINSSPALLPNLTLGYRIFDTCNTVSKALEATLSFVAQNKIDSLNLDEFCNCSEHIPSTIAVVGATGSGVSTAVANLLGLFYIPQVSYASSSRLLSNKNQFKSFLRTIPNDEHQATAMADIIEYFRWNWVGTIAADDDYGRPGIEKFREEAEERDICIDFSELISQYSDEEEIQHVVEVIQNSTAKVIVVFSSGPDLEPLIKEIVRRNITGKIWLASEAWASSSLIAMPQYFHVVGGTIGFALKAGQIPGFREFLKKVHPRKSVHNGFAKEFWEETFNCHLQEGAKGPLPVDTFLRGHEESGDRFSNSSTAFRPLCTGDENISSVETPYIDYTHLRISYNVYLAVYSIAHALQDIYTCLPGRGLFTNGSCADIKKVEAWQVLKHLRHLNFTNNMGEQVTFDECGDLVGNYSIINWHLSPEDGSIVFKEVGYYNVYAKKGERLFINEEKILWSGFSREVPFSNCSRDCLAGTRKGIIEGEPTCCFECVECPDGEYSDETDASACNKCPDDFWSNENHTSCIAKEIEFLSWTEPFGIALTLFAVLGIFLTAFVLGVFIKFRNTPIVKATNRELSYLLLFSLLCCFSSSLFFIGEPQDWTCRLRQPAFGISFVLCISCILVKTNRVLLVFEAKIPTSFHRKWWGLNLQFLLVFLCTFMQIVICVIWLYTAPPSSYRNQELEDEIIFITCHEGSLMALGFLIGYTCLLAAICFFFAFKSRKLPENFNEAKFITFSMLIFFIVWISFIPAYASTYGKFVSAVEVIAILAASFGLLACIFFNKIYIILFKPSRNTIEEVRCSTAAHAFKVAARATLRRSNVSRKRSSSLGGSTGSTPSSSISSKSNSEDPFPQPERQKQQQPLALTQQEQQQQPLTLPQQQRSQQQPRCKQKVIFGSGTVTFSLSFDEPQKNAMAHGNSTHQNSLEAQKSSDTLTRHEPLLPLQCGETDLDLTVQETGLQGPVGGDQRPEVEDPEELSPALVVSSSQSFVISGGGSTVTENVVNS
Test: increases in [Ca^2+ ]i in HEK-293 cells expressing the human calcium receptor (fura-2 loaded HEK 293/pHuPCaR4.0 cells), % activity
Assay type: cell-based
Conditions: for activity at […]: HEK293

Structure (SMILES) | % activity (33 ng/mL) [%] | % activity (330 ng/mL) [%] | % activity (3300 ng/mL) [%] | activity at […] (33 ng/mL) [%] | activity at […] (330 ng/mL) [%]
COc1ccc(CNC(C)c2ccccc2)cc1C (centres unmarked) [Compound 23G] | 67 | 93 | 127 | – | –
COc1ccc(CNC(C)c2ccccc2OC)cc1C (centres unmarked) [Compound 23H] | – | – | – | 77 | 114
COc1cccc(C(C)NCc2ccc(OC)c(C)c2)c1 (centres unmarked) [Compound 23I] | 58 | 102 | – | – | –
COc1ccc(CNC(C)c2ccccc2F)cc1C (centres unmarked) [Compound 23J] | 51 | 61 | 102 | – | –
COc1ccc(CNC(C)c2cccc(F)c2)cc1C (centres unmarked) [Compound 23K] | 72 | 107 | 106 | – | –
COc1ccc(CNC(C)c2ccc(F)cc2)cc1C (centres unmarked) [Compound 23L] | 37 | 77 | 107 | – | –
COc1ccc(CNC(C)c2ccccc2Cl)cc1C (centres unmarked) [Compound 23M] | 74 | 97 | 113 | – | –
COc1ccc(CNC(C)c2cccc(Cl)c2)cc1C (centres unmarked) [Compound 23N] | 50 | 96 | – | – | –
COc1ccc(CNC(C)c2ccc(Cl)cc2)cc1C (centres unmarked) [Compound 23O] | 46 | 79 | 111 | – | –
COc1ccc(CNC(C)c2ccccc2Br)cc1C (centres unmarked) [Compound 23P] | 70 | 99 | 125 | – | –
COc1ccc(CNC(C)c2cccc(Br)c2)cc1C (centres unmarked) [Compound 23Q] | 98 | 114 | 122 | – | –
COc1ccc(CNC(C)c2ccc(Br)cc2)cc1C (centres unmarked) [Compound 23R] | 54 | 86 | 104 | – | –
COc1ccc(CNC(C)c2cccc(I)c2)cc1C (centres unmarked) [Compound 23S] | 53 | 97 | – | – | –
COc1ccc(CNC(C)c2ccc(I)cc2)cc1C (centres unmarked) [Compound 23T] | 60 | 74 | 102 | – | –
COc1ccc(CNC(C)c2cccc(C(C)=O)c2)cc1C (centres unmarked) [Compound 23U] | 48 | 87 | – | – | –
COc1ccc(CNC(C)c2ccccc2C)cc1C (centres unmarked) [Compound 23W] | 81 | 97 | 117 | – | –
COc1ccc(CNC(C)c2cccc(C)c2)cc1C (centres unmarked) [Compound 23X] | 49 | 94 | – | – | –
COc1ccc(CNC(C)c2cccc(C)c2)cc1C (centres unmarked) [Compound 23Y] | 61 | 87 | 106 | – | –
CCc1cccc(C(C)NCc2ccc(OC)c(C)c2)c1 (centres unmarked) [Compound 23Z] | 100 | 126 | 129 | – | –
CCc1ccc(C(C)NCc2ccc(OC)c(C)c2)cc1 (centres unmarked) [Compound 24A] | 52 | 85 | 122 | – | –
COc1ccc(CNC(C)c2ccccc2C(F)(F)F)cc1C (centres unmarked) [Compound 24B] | 34 | 61 | 76 | – | –
COc1ccc(CNC(C)c2cccc(C(F)(F)F)c2)cc1C (centres unmarked) [Compound 24C] | 87 | 113 | 116 | – | –
COc1ccc(CNC(C)c2ccc(C(F)(F)F)cc2)cc1C (centres unmarked) [Compound 24D] | 34 | 53 | 87 | – | –
COc1ccc(CNC(C)c2cccc(C#N)c2)cc1C (centres unmarked) [Compound 24E] | 35 | 71 | 94 | – | –
COc1ccc(CNC(C)c2ccc(C)c(C)c2)cc1C (centres unmarked) [Compound 24G] | 75 | 94 | 109 | – | –
COc1ccc(CNC(C)c2ccc(F)c(F)c2)cc1C (centres unmarked) [Compound 24I] | 55 | 84 | 109 | – | –

Structure (SMILES) | % activity (33 ng/mL) [%] | % activity (330 ng/mL) [%] | % activity (3300 ng/mL) [%] | activity at […] (33 ng/mL) [%] | activity at […] (330 ng/mL) [%]
C[C@@H](NCCCc1cccc(OC(F)(F)F)c1)c1cccc2ccccc12 [Compound 24J] | 75 | 103 | – | – | –
COc1cccc([C@@H](C)NCCCc2cc(F)ccc2F)c1 [Compound 24K] | 78 | 106 | – | – | –
COc1cccc([C@@H](C)NCCCc2c(F)cccc2F)c1 [Compound 24L] | 62 | 105 | – | – | –
COc1cccc([C@@H](C)NCCCc2cc(F)cc(F)c2)c1 [Compound 24M] | 99 | 134 | 132 | – | –
CC(NCCCc1ccccc1Cl)c1cccc(Cl)c1 (centres unmarked) [Compound 24O] | 58 | 114 | 137 | – | –
COc1cccc([C@@H](C)NC(C)CCc2cc(F)cc(F)c2)c1 (some centres unmarked) [Compound 24P] | 110 | 138 | 140 | – | –
COC(=O)c1cccc(C(C)NCc2ccc(OC)c(C)c2)c1 (centres unmarked) [Compound 24U] | 78 | 106 | 106 | – | –
CCOC(=O)COc1cccc(C(C)NCc2ccc(OC)c(C)c2)c1 (centres unmarked) [Compound 24V] | 71 | 98 | 127 | – | –
COc1ccc(CN[C@H](C)c2cccc3ccccc23)cc1Br [Compound 24X] | 124 | 109 | 126 | – | –
CCOc1ccc(CN[C@H](C)c2cccc3ccccc23)cc1Cl [Compound 24Y] | 127 | 120 | 119 | – | –
COc1ccc(CNC(C)c2cccc(SC)c2)cc1C (centres unmarked) [Compound 24Z] | 135 | 138 | 138 | – | –
CCOc1ccc(CN[C@H](C)c2cccc3ccccc23)cc1C [Compound 25A] | 114 | 120 | 122 | – | –
COc1cccc([C@@H](C)NCC=Cc2ccccc2)c1 [Compound 25E, (R)-N-(3-phenylprop-2-enyl)-1-(3-methoxyphenyl)ethylamine] | 122 | 129 | 132 | – | –
COc1cccc([C@@H](C)NCc2cccc3ccccc23)c1 [Compound 25F] | – | – | – | 76 | 85
COc1cccc([C@@H](C)NCC(C)=Cc2ccccc2)c1 [Compound 25G, (R)-N-(2-methyl-3-phenylprop-2-enyl)-1-(3-methoxyphenyl)ethylamine] | 99 | 115 | 130 | – | –
COc1cccc([C@@H](C)NC[C@H](C)C=Cc2ccccc2)c1 [Compound 25H, (R,R)-N-(2-methyl-4-phenybut-3-enyl)-1-(3-methoxyphenyl)ethylamine] | 89 | 107 | 115 | – | –
COc1cccc([C@H](C)NC[C@H](C)C=Cc2ccccc2)c1 [Compound 25I, (S,R)-N-(2-methyl-4-phenybut-3-enyl)-1-(3-methoxyphenyl)ethylamine] | 114 | 113 | 119 | – | –
COc1cccc([C@@H](C)NCc2ccc3c(c2)OCO3)c1 [Compound 25J] | 105 | 123 | 119 | – | –
COc1cccc([C@@H](C)NCc2ccc(OC)c(OC)c2)c1 [Compound 25K] | 86 | 107 | 124 | – | –
C[C@@H](NCc1cccc2ccccc12)c1cccc2ccccc12 [Compound 25L] | 85 | 97 | 97 | – | –
COc1cccc([C@@H](C)NCC(C)c2ccccc2)c1 (some centres unmarked) [Compound 25M] | 79 | 100 | 118 | – | –
COc1cccc([C@@H](C)NCC(C)c2ccccc2)c1 (some centres unmarked) [Compound 25N] | 46 | 73 | 94 | – | –
COc1cccc([C@@H](C)NCc2ccc3c(c2)OCCO3)c1 [Compound 25O] | 96 | 115 | 126 | – | –
COc1cccc([C@@H](C)NC2Cc3ccccc3C2)c1 [Compound 25P] | 75 | 81 | 90 | – | –
COc1cccc([C@@H](C)NCCc2ccccc2)c1 [Compound 25Q] | 77 | 95 | 116 | – | –
